# Experimental data reported in ChEMBL document CHEMBL5360530, “Structure activity relationship (SAR) and anticancer activity of pyrrolidine derivatives: Recent developments and future prospects (A review)” (Eur J Med Chem, 2023).
# Assays:
# FaDu = experiment: Anticancer activity against human FaDu cells assessed as cell growth inhibition measured after 48 hrs; assay type: functional, cell-based; details: Homo sapiens, FaDu, 48 h
# HCT-116 = experiment: Anticancer activity against human HCT-116 cells assessed as cell growth inhibition measured after 48 hrs by MTT assay; assay type: functional, cell-based; details: HCT-116, 48 h
# HepG2 [1] = experiment: Anticancer activity against human HepG2 cells assessed as cell growth inhibition measured after 48 hrs by MTT assay; assay type: functional, cell-based; details: HepG2, 48 h
# PC-3 = experiment: Anticancer activity against human PC-3 cells assessed as cell growth inhibition measured after 48 hrs by MTT assay; assay type: functional, cell-based; details: PC-3, 48 h
# MCF7 [2] = experiment: Anticancer activity against human MCF7 cells assessed as cell growth inhibition at 100 uM by MTT assay relative to control; assay type: functional
# A549 [3] = experiment: Anticancer activity against human A549 cells assessed as cell growth inhibition at 100 uM by MTT assay relative to control; assay type: functional
# HepG2 [4] = experiment: Anticancer activity against human HepG2 cells assessed as cell growth inhibition at 100 uM by MTT assay relative to control; assay type: functional
# A-431 = experiment: Anticancer activity against human A-431 cells assessed as cell growth inhibition at 100 uM by MTT assay relative to control; assay type: functional
# MCF7 [5] = experiment: Anticancer activity against human MCF7 cells assessed as cell growth inhibition measured after 48 hrs by MTT assay; assay type: functional, cell-based; details: MCF7, 48 h
# A549 [6] = experiment: Anticancer activity against human A549 cells assessed as cell growth inhibition measured after 48 hrs by MTT assay; assay type: functional, cell-based; details: A549, 48 h
SMILES,inhibition at 100 µM (MCF7 [2]) [%],inhibition at 100 µM (A549 [3]) [%],inhibition at 100 µM (HepG2 [4]) [%],inhibition at 100 µM (A-431) [%],other results
O=C1Nc2ccccc2C12N[C@H](Cc1ccccc1)[C@@H](c1ccc(Br)cc1)[C@@]21CN(/C=C/c2ccccc2)C/C(=C\c2ccc(Br)cc2)C1=O (stereo partly specified),–,–,–,–,IC50 (FaDu): ≥ 19000 nM
O=C(/C=C/c1cccs1)[C@H]1[C@H](c2cccs2)[C@H]2CSCN2[C@]12C(=O)Nc1ccccc12,–,–,–,–,IC50 (HCT-116): 1570 nM; IC50 (HepG2 [1]): ≥ 1500 nM; IC50 (PC-3): ≥ 800 nM
CCCCCCCCCCCCCCCC(=O)N1CC[C@@H](OP(=O)([O-])OCC[N+](C)(C)C)C1,22.6,4.7,10.1,0.3,–
Cc1ccc(/C=C2\CN(/C=C/c3ccccc3)C[C@]3(C2=O)[C@H](c2ccc(C)cc2)[C@@H](Cc2ccccc2)NC32C(=O)Nc3ccccc32)cc1 (stereo partly specified),–,–,–,–,IC50 (FaDu): ≥ 19000 nM
Cc1ccc([C@@H]2[C@H]3CSCN3[C@]3(C(=O)Nc4ccccc43)[C@H]2C(=O)/C=C/c2ccccc2)cc1,–,–,–,–,IC50 (HCT-116): 1570 nM; IC50 (HepG2 [1]): ≥ 1500 nM; IC50 (PC-3): ≥ 800 nM
O=C(/C=C/c1ccc2ccccc2c1)[C@H]1[C@H](c2ccc3ccccc3c2)[C@H]2CSCN2[C@]12C(=O)Nc1ccccc12,–,–,–,–,IC50 (HCT-116): 1570 nM; IC50 (HepG2 [1]): ≥ 1500 nM; IC50 (PC-3): ≥ 800 nM
O=C1Nc2ccccc2C12N[C@H](Cc1ccccc1)[C@@H](c1ccc(Cl)cc1Cl)[C@@]21CN(/C=C/c2ccccc2)C/C(=C\c2ccc(Cl)cc2Cl)C1=O (stereo partly specified),–,–,–,–,IC50 (FaDu): 22000 nM
CCCCCCCC/C=C\CC(=O)N1CCC[C@@H]1COP(=O)([O-])OCC[N+](C)(C)C,93,4.7,10.1,0.3,–
CCCCCCCCCCCCCCCCCC/C=C\CCCCCCCC(=O)N1CCC[C@H]1OP(=O)([O-])OCC[N+](C)(C)C,22.6,4.7,10.1,0.3,–
Cc1ccc(/C=C/C(=O)[C@H]2[C@H](c3ccc(C)cc3)[C@H]3CSCN3[C@]23C(=O)Nc2ccccc23)cc1,–,–,–,–,IC50 (HCT-116): 1570 nM; IC50 (HepG2 [1]): ≥ 1500 nM; IC50 (PC-3): ≥ 800 nM
COc1ccccc1/C=C1\CN(/C=C/c2ccccc2)C[C@]2(C1=O)[C@H](c1ccccc1OC)[C@@H](Cc1ccccc1)NC21C(=O)Nc2ccccc21 (stereo partly specified),–,–,–,–,IC50 (FaDu): ≥ 19000 nM
O=C(CN1CCCC1)Nc1cc2ccccc2oc1=O,–,–,–,–,IC50 (MCF7 [5]): 4800 nM; IC50 (A549 [6]): 1800 nM
O=C(/C=C/c1ccc(F)cc1)[C@H]1[C@H](c2ccc(F)cc2)[C@H]2CSCN2[C@]12C(=O)Nc1ccc(Cl)cc12,–,–,–,–,IC50 (HCT-116): 1570 nM; IC50 (HepG2 [1]): ≥ 1500 nM; IC50 (PC-3): ≥ 800 nM
N#C[C@H]1CCCN1CC(=O)Nc1cc2ccccc2oc1=O,–,–,–,–,IC50 (MCF7 [5]): 4370 nM; IC50 (A549 [6]): 4370 nM
CCCCCCCC/C=C\CC(=O)N1CCC[C@H]1COP(=O)([O-])OCC[N+](C)(C)C,91,4.7,10.1,0.3,–
CCCCCC/C=C\CCCCCCCC(=O)N1CC[C@H](OP(=O)([O-])OCC[N+](C)(C)C)C1,22.6,4.7,10.1,0.3,–
CCCCCC/C=C\CCCCCCCC(=O)N1CCC[C@H]1OP(=O)([O-])OCC[N+](C)(C)C,22.6,4.7,10.1,0.3,–
CCCCCCCCCCCCCCCCCC/C=C\CCCCCCCC(=O)N1CCC[C@@H]1OP(=O)([O-])OCC[N+](C)(C)C,22.6,4.7,10.1,0.3,–
CCCCCCCCCCCCCCCCC/C=C\CCCCCCCC(=O)N1CC[C@H](OP(=O)([O-])OCC[N+](C)(C)C)C1,22.6,4.7,10.1,0.3,–
CCCCCCCC/C=C\CC(=O)N1CC[C@H](OP(=O)([O-])OCC[N+](C)(C)C)C1,22.6,4.7,10.1,0.3,–
Cc1cc(=O)oc2cc(NC(=O)[C@@H]3CCCN3S(=O)(=O)c3ccc(Cl)cc3)ccc12,–,–,–,–,IC50 (MCF7 [5]): 7050 nM; IC50 (A549 [6]): 27300 nM
CCCCCCCCCCCCCCCC(=O)N1CC[C@H](COP(=O)([O-])OCC[N+](C)(C)C)C1,74.6,71.6,57.3,74.2,–
COc1ccc(/C=C/C(=O)[C@H]2[C@H](c3ccc(OC)cc3)[C@H]3CSCN3[C@]23C(=O)Nc2ccccc23)cc1,–,–,–,–,IC50 (HCT-116): 1570 nM; IC50 (HepG2 [1]): ≥ 1500 nM; IC50 (PC-3): ≥ 800 nM
O=C(/C=C/c1ccc(F)cc1)[C@H]1[C@H](c2ccc(F)cc2)[C@H]2CSCN2[C@]12C(=O)Nc1ccccc12,–,–,–,–,IC50 (HCT-116): 1570 nM; IC50 (HepG2 [1]): ≥ 1500 nM; IC50 (PC-3): ≥ 800 nM
CCCCCCCCCCCCCCCCC/C=C\CCCCCCCC(=O)N1CC[C@@H](OP(=O)([O-])OCC[N+](C)(C)C)C1,22.6,4.7,10.1,0.3,–
Cc1cccc(/C=C2\CN(/C=C/c3ccccc3)C[C@]3(C2=O)[C@H](c2cccc(C)c2)[C@@H](Cc2ccccc2)NC32C(=O)Nc3ccccc32)c1 (stereo partly specified),–,–,–,–,IC50 (FaDu): 21800 nM
